Patent US6506766B1 (Abbott Laboratories, priority 1998, dated 2003)
Read-outs that look alike come from different tables or passages of the source.

Experiments:
[1] = target: T1, human progesterone receptor-A [PRA] isoform (Homo sapiens, UniProt P06401); assay: Radioligand binding with human progesterone receptor cytosol ([3H]-progesterone competition)
T1 construct: host or cells: insect SF21 cells (baculovirus)
T1 sequence (P06401 1-769 isoform P06401-2): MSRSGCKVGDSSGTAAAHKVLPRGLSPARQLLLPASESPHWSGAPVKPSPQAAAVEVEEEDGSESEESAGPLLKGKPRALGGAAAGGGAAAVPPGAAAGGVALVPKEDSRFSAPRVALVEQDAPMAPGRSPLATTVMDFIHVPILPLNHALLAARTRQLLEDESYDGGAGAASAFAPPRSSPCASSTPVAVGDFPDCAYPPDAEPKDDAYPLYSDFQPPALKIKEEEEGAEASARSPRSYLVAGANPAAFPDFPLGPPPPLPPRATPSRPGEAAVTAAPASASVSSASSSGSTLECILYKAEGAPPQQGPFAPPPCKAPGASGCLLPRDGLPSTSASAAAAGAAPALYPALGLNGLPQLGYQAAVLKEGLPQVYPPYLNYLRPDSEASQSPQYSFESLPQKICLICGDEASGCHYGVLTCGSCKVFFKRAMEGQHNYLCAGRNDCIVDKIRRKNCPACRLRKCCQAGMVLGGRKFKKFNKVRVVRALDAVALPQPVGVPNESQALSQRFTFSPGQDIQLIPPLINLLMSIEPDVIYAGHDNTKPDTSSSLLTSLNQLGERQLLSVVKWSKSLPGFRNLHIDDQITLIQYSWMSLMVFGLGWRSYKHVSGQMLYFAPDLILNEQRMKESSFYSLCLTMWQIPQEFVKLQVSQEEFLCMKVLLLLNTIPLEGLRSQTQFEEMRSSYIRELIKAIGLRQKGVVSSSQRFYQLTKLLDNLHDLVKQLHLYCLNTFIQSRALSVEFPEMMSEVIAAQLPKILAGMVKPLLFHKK

[2] = target: T2, human glucocorticoid receptor-α [GRX] isoform (Homo sapiens, UniProt P04150); assay: Radioligand binding with human glucocorticoid receptor cytosol ([3H]-dexamethasone competition)
T2 construct: host or cells: insect SF21 cells (baculovirus)
T2 sequence (P04150 1-777): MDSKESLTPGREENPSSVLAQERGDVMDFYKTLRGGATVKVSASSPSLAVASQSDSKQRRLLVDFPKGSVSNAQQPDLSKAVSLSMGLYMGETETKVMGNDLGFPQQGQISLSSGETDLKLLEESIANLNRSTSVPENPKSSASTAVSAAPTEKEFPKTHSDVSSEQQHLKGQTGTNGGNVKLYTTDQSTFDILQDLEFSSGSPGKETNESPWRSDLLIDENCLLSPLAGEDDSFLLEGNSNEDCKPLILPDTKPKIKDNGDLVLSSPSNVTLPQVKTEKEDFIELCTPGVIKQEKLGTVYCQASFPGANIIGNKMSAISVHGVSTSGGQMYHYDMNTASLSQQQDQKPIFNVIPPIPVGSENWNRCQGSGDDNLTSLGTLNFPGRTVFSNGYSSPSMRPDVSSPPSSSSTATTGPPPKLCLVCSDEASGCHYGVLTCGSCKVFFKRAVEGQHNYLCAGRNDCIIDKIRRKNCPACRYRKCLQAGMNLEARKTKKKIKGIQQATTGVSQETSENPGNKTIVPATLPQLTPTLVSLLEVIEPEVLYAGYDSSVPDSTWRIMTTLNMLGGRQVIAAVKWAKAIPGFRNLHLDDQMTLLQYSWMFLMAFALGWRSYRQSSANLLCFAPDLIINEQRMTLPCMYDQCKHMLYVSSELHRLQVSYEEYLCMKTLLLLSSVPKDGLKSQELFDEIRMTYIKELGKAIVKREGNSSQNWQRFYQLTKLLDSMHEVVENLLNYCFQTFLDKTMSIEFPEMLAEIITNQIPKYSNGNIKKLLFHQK

[3] = PRA cytosol expressed in insect SF21 cells, [3H]Prog ~0.8 nM, 4° C. overnight, Ki by Cheng-Prusoff, KL ~4.5 nM, read-out: Ki (nM) PR
[4] = GRX cytosol expressed in insect SF21 cells, [3H]-Dex ~0.9 nM, 4° C. overnight, Ki by Cheng-Prusoff, KL ~[…], read-out: Ki (nM) GR

SMILES	Ki [1, 3]	Ki [2, 4]	Ki ([1]; Ki (nM) PR)	Ki ([2]; Ki (nM) GR)
C=CCC1Oc2cccc(NC)c2-c2ccc3c(c21)C(C)=CC(C)(C)N3 (centres unmarked) [Example 3, 2,5-Dihydro-2,2,4,N-tetramethyl-5-(2-propenyl)-1H-[1]benzopyrano[3,4-f]quinolin-10-amine]	2650 nM	4.8 nM	–	–
C=CCC1Oc2cccc(C(=O)OC)c2-c2ccc3c(c21)C(C)=CC(C)(C)N3 (centres unmarked) [Example 4, Methyl 2,5-Dihydro-2,2,4-trimethyl-5-(2-propenyl)-1H-[1]benzopyrano[3,4-f]quinoline-10-carboxylate]	2960 nM	7 nM	–	–
C=CCC1Oc2cccc(C=C)c2-c2ccc3c(c21)C(C)=CC(C)(C)N3 (centres unmarked) [Example 5, 10-Ethenyl-2,5-dihydro-2,2,4-trimethyl-5-(2-propenyl)-1H-[1]benzopyrano[3,4-f]quinoline]	≥ 10000 nM	357 nM	–	–
C#Cc1cccc2c1-c1ccc3c(c1C(CC=C)O2)C(C)=CC(C)(C)N3 (centres unmarked) [Example 6, 10-Ethynyl-2,5-dihydro-2,2,4-trimethyl-5-(2-propenyl)-1H-[1]benzopyrano[3,4-f]quinoline]	321 nM	3.8 nM	–	–
CC1=CC(C)(C)Nc2ccc3c(c21)C(c1ccccc1)Oc1cccc(O)c1-3 (centres unmarked) [Example 7, 2,5-Dihydro-2,2,4-trimethyl-5-phenyl-1H-[1]benzopyrano[3,4-f]quinolin-10-ol]	5680 nM	4.3 nM	–	–
C=CCC1Oc2cccc(OC(F)F)c2-c2ccc3c(c21)C(C)=CC(C)(C)N3 (centres unmarked) [Example 8, 10-(Difluoromethoxy)-2,5-dihydro-2,2,4-trimethyl-5-(2-propenyl)-1H-[1]benzopyrano[3,4-f]quinoline]	6010 nM	168 nM	–	–
CCOc1cccc2c1-c1ccc3c(c1C(c1ccccc1)O2)C(C)=CC(C)(C)N3 (centres unmarked) [Example 9, 10-Ethoxy-2,5-dihydro-2,2,4-trimethyl-5-phenyl-1H-[1]benzopyrano[3,4-f]quinoline]	≥ 10000 nM	60.5 nM	–	–
CC(=O)Oc1cccc2c1-c1ccc3c(c1C(c1ccccc1)O2)C(C)=CC(C)(C)N3 (centres unmarked) [Example 10, 2,5-Dihydro-2,2,4-trimethyl-5-phenyl-1H-[1]benzopyrano[3,4-f]quinoline-10-ol Acetate (Ester)]	10900 nM	179 nM	–	–
COc1cccc2c1-c1ccc3c(c1C(c1cc(C)cc(Br)c1)O2)C(C)=CC(C)(C)N3 (centres unmarked) [Example 11, 5-(3-Bromo-5-methylphenyl)-2,5-dihydro-10-methoxy-2,2,4-trimethyl-1H-[1]benzopyrano[3,4-f]quinoline]	288 nM	4.4 nM	–	–
COc1cccc2c1-c1ccc3c(c1C(c1cccc(OC(C)=O)c1)O2)C(C)=CC(C)(C)N3 (centres unmarked) [Example 12, 3-(2,5-Dihydro-10-methoxy-2,2,4-trimethyl-1H-[1]benzopyrano[3,4-f]quinolin-5-yl)phenol, Acetate (Ester)]	≥ 10000 nM	8.6 nM	–	–
COc1cccc2c1-c1ccc3c(c1C(c1cccc(O)c1)O2)C(C)=CC(C)(C)N3 (centres unmarked) [Example 13, 3-(2,5-Dihydro-10-methoxy-2,2,4-trimethyl-1H-[1]benzopyrano[3,4-f]quinolin-5-yl)phenol]	≥ 10000 nM	11.1 nM	–	–
COc1cccc2c1-c1ccc3c(c1C(c1cccc(OCSC)c1)O2)C(C)=CC(C)(C)N3 (centres unmarked) [Example 14, 2,5-Dihydro-10-methoxy-2,2,4-trimethyl-5-[[3-(methylthio)methoxy]phenyl]-1H-[1]benzopyrano[3,4-f]quinoline]	≥ 10000 nM	5.2 nM	–	–
COc1cccc2c1-c1ccc3c(c1C(c1cccc(OC(=O)N(C)C)c1)O2)C(C)=CC(C)(C)N3 (centres unmarked) [Example 15, [3-(2,5-Dihydro-10-methoxy-2,2,4-trimethyl-1H-[1]benzopyrano[3,4-f]quinolin-5-yl)phenyl]dimethylcarbamate]	–	–	≥ 10000 nM	2.5 nM
COc1cccc2c1-c1ccc3c(c1C(c1cc(C)cc(-c4ccco4)c1)O2)C(C)=CC(C)(C)N3 (centres unmarked) [Example 16, 5-[3-(2-Furanyl)-5-methylphenyl]-2,5-dihydro-10-methoxy-2,2,4-trimethyl-1H-[1]benzopyrano[3,4-f]quinoline]	≥ 10000 nM	8 nM	–	–
COc1cccc2c1-c1ccc3c(c1C(c1cc(C)cc(N4CCOCC4)c1)O2)C(C)=CC(C)(C)N3 (centres unmarked) [Example 17, 2,5-Dihydro-10-methoxy-2,2,4-trimethyl-5-[3-methyl-5-(1-morpholinyl)phenyl]-1H-[1]benzopyrano[3,4-f]quinoline]	≥ 10000 nM	39 nM	–	–
COc1cccc2c1-c1ccc3c(c1C(c1cccc(C(F)(F)F)c1)O2)C(C)=CC(C)(C)N3 (centres unmarked) [Example 21, 2,5-Dihydro-10-methoxy-2,2,4-trimethyl-5-[3-(trifluoromethyl)phenyl]-1H-[1]benzopyrano[3,4-f]quinoline]	4020 nM	10.7 nM	–	–
COc1ccc(C2Oc3cccc(OC)c3-c3ccc4c(c32)C(C)=CC(C)(C)N4)cc1 (centres unmarked) [Example 22, 2,5-Dihydro-10-methoxy-5-(4-methoxyphenyl)-2,2,4-trimethyl-1H-[1]benzopyrano[3,4-f]quinoline]	≥ 10000 nM	6.5 nM	–	–
COc1cccc2c1-c1ccc3c(c1C(c1cccc(Cl)c1)O2)C(C)=CC(C)(C)N3 (centres unmarked) [Example 23, 5-(3-Chlorophenyl)-2,5-dihydro-10-methoxy-2,2,4-trimethyl-1H-[1]benzopyrano[3,4-f]quinoline]	6150 nM	8.2 nM	–	–
COc1cccc2c1-c1ccc3c(c1C(c1cccc(C)c1)O2)C(C)=CC(C)(C)N3 (centres unmarked) [Example 24, 2,5-Dihydro-10-methoxy-2,2,4-trimethyl-5-(3-methylphenyl)-1H-[1]benzopyrano[3,4-f]quinoline]	14800 nM	3.5 nM	–	–
COc1cccc2c1-c1ccc3c(c1C(c1cc(C)cc(C)c1)O2)C(C)=CC(C)(C)N3 (centres unmarked) [Example 27, 5-(3,5-Dimethylphenyl)-2,5-dihydro-10-methoxy-2,2,4-trimethyl-1H-[1]benzopyrano[3,4-f]quinoline]	3580 nM	–	–	5.2 nM
COc1cccc2c1-c1ccc3c(c1C(c1ccc(Cl)cc1)O2)C(C)=CC(C)(C)N3 (centres unmarked) [Example 28, 5-(4-Chlorophenyl)-2,5-dihydro-10-methoxy-2,2,4-trimethyl-1H-[1]benzopyrano[3,4-f]quinoline]	3270 nM	4.7 nM	–	–
COc1cccc2c1-c1ccc3c(c1C(c1ccc(C)c(C)c1)O2)C(C)=CC(C)(C)N3 (centres unmarked) [Example 29, 5-(3,4-Dimethylphenyl)-2,5-dihydro-10-methoxy-2,2,4-trimethy-1H-[1]benzopyrano[3,4-f]quinoline]	7760 nM	7.7 nM	–	–
COc1cccc2c1-c1ccc3c(c1C(c1ccc(F)cc1)O2)C(C)=CC(C)(C)N3 (centres unmarked) [Example 30, 5-(4-Fluorophenyl)-2,5-dihydro-10-methoxy-2,2,4-trimethyl-1H-[1]benzopyrano[3,4-f]quinoline]	7920 nM	13 nM	–	–
COc1cccc2c1-c1ccc3c(c1C(c1cc(C(F)(F)F)cc(C(F)(F)F)c1)O2)C(C)=CC(C)(C)N3 (centres unmarked) [Example 31, 5-[3,5-bis(Trifluoromethyl)phenyl]-2,5-dihydro-10-methoxy-2,2,4-trimethyl-1H-[1]benzopyrano[3,4-f]quinoline]	≥ 10000 nM	12.2 nM	–	–
COc1cccc2c1-c1ccc3c(c1C(c1cc(F)cc(F)c1)O2)C(C)=CC(C)(C)N3 (centres unmarked) [Example 34, 5-(3,5-Difluorophenyl)-2,5-dihydro-10-methoxy-2,2,4-trimethyl-1H-[1]benzopyrano[3,4-f]quinoline]	4710 nM	4 nM	–	–
